PMC7413254 (Nature Communications, 2020)
Where two headings read alike, the source gives them in different places.

Legend:
non-expressing oocytes [1] = experiment: cells; type: cell-based, Xenopus laevis; conditions: Xenopus laevis, total [3H]CQ transport; for inhibition at 500 µM: [test solute] = 0.5 mM; for inhibition at 1000 µM: [test solute] = 1 mM; for inhibition at 2000 µM: [test solute] = 2 mM
Method in brief: (§1)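 Oocytes expressing PfCRT isoforms, or non-expressing controls, were incubated 1.5 h at 27.5 °C in ND96 buffer pH 5.5 (96 mM NaCl, 2 mM KCl, 1 mM MgCl2, 1.8 mM CaCl2, 10 mM MES, 10 mM Tris-base), measuring uptake from acidic medium into cytosol. Oocytes were washed ice-cold, SDS-lysed and counted by scintillation.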

PfCRT^3D7 [2] = biological target: T1, PfCRT^3D7 (Plasmodium falciparum, UniProt Q8IBZ9); experiment: cell-based; type: cell-based; conditions: total [3H]CQ transport; for inhibition at 500 µM: [test solute] = 0.5 mM; for inhibition at 1000 µM: [test solute] = 1 mM; for inhibition at 2000 µM: [test solute] = 2 mM
T1 sequence (Q8IBZ9 59-398): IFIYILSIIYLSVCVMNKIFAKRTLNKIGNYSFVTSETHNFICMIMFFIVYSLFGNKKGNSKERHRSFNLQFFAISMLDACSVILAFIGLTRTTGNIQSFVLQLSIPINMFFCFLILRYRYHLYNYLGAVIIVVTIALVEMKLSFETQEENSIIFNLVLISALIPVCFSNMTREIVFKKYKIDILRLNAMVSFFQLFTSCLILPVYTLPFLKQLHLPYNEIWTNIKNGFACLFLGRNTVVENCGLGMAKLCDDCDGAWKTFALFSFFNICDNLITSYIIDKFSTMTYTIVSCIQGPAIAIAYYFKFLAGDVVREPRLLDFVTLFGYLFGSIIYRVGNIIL
Method in brief: as §1

PfCRT^Dd2 [3] = biological target: T2, PfCRT^Dd2 (Plasmodium falciparum, UniProt Q9N623, A220S/I356T/K76T/M74I/N326S/N75E/Q271E/R371I); experiment: [3H]CQ uptake into Xenopus oocytes, cis-inhibition by unlabelled solute; type: cell-based
T2 sequence (Q9N623 whole entry A220S/I356T/K76T/M74I/N326S/N75E/Q271E/R371I): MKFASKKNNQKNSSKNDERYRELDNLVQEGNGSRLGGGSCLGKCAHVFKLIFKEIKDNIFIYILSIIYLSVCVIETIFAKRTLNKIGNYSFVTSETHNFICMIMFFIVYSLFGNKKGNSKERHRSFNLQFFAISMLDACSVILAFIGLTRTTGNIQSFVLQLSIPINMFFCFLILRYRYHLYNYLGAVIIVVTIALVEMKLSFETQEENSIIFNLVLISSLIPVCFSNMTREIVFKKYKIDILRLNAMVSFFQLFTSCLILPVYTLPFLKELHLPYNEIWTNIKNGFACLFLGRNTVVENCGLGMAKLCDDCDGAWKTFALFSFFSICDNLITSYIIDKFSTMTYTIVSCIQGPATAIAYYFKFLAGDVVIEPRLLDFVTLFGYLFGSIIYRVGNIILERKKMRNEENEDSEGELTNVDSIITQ
Method in brief: as §1

PfCRT^Ecu1110 [4] = biological target: T3, PfCRT^Ecu1110 (Plasmodium falciparum, UniProt Q9N623, A220S/I356L/K76T/N326D); experiment: as above; type: cell-based
T3 sequence (Q9N623 whole entry A220S/I356L/K76T/N326D): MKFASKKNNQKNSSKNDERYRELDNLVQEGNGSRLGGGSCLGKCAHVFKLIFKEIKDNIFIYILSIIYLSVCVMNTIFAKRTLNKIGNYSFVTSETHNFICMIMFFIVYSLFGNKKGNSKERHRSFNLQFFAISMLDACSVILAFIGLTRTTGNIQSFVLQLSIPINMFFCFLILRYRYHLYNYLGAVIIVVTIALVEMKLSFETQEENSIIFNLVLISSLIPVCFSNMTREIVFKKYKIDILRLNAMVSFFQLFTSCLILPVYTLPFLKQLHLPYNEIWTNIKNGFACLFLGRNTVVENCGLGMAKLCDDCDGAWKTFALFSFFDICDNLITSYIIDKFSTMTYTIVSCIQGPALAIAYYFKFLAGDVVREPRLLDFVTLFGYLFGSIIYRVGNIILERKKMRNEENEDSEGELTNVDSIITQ
Method in brief: as §1

non-expressing oocytes [5] = type: cell-based, Xenopus laevis; conditions: total [3H]CQ transport; for Uptake of [3H]CQ (% non-expressing oocyte control), trans-stimulation: non-expressing oocytes, normalised to the oocyte type control; for Uptake of [3H]CQ (% PfCRTDd2 control), trans-stimulation, non-expressing oocytes: mean ± SEM, SEM
Method in brief: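 Oocytes (ten per treatment, ≥4 independent frogs/days) were preloaded by injecting VF-6 in 25 nL ND96 at pH 5.0, 5.5, 6.0 or 7.0, or Na^+-free choline buffer, then uptake run 1.5 h, 27.5 °C, ND96 pH 5.5 by default. Internal concentrations assumed ~400 nL oocyte volume.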

PfCRT^3D7 [6] = biological target: T1, PfCRT^3D7; experiment: cell-based; type: cell-based
Method in brief: (§2)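 Transport measured in Xenopus oocytes expressing the transporters, 1.5 h at 27.5 °C in ND96 pH 5.5 unless noted. For trans-stimulation, VF-6 injected in 25 nL ND96 at pH 5.0–7.0 or Na^+-free (choline) buffer; intracellular levels based on ~400 nL oocyte volume. Ten oocytes per treatment, ≥4 experiments.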

PfCRT^Dd2 [7] = biological target: T2, PfCRT^Dd2; experiment: cell-based; type: cell-based; conditions: […]; for activity at 45000 µM: [test solute]i = 45 mM (30 mM for some solutes due to solubility)
Method in brief: as §2

PfCRT^Ecu1110 [8] = biological target: T3, PfCRT^Ecu1110; experiment: cell-based; type: cell-based; conditions: […]
Method in brief: as §2

PfNT1 = biological target: T4, PfNT1 (Plasmodium falciparum, UniProt Q8IDM6); experiment: cell-based; type: cell-based; conditions: […], read-out: Uptake of [3H]CQ (% PfCRTDd2 control), trans-stimulation, PfNT1; SEM
T4 construct: expressed in transfected cells; host or cells: Xenopus laevis oocytes (stage V-VI), cRNA-injected
T4 sequence (Q8IDM6 whole entry): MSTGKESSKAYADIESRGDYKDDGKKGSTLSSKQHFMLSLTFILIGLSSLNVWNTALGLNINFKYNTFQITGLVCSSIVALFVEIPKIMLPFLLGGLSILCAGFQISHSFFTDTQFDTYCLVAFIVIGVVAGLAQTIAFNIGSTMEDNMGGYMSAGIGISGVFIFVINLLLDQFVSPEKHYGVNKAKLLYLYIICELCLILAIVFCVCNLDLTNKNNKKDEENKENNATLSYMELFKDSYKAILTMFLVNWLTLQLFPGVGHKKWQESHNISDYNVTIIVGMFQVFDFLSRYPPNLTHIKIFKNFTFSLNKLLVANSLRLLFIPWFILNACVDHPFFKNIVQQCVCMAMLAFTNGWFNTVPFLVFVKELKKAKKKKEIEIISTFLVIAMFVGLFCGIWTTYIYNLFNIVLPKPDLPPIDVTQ
Method in brief: as §2

PfCRT [9] = experiment: Influx of VF-6 via PfCRT into the oocyte, solutes tested as potential co-substrates; type: cell-based, Plasmodium falciparum; parameters: key: X: Compounds that have been tested as potential co-substrates but are not required for influx of VF-6 via PfCRT into the oocyte; conditions: X marks the solute
PfCRT [10] = experiment: Test of solutes as potential co-substrates for influx of VF-6 via PfCRT into the oocyte; type: cell-based, Plasmodium falciparum; parameters: key: X: Compounds that have been tested as potential co-substrates but are not required for influx of VF-6 via PfCRT into the oocyte; conditions: X = tested
[11] = Oocyte, mean ± SEM, SEM, read-out: Uptake of [3H]CQ (% PfCRTDd2 control), cis-inhibition, non-expressing oocytes
[12] = non-expressing oocytes, normalised to the oocyte type control, read-out: Uptake of [3H]CQ (% non-expressing oocyte control), cis-inhibition
[13] = PfCRT3D7 oocytes, normalised to the oocyte type control, read-out: Uptake of [3H]CQ (% PfCRT3D7 control), cis-inhibition
[14] = mean ± SEM, SEM, read-out: Uptake of [3H]CQ (% PfCRTDd2 control), cis-inhibition, PfCRT3D7
[15] = read-out: PfCRT-mediated [3H]CQ transport, cis-inhibition (% PfCRTDd2 control)
[16] = read-out: Uptake of [3H]CQ (% PfCRTDd2 control), cis-inhibition
[17] = read-out: Uptake of [3H]CQ (% PfCRTDd2 control), cis-inhibition, PfCRTDd2, SEM
[18] = read-out: [3H]CQ transport (% PfCRTDd2 control), cis-inhibition, PfCRTDd2, SEM
[19] = read-out: PfCRT-mediated [3H]CQ transport, cis-inhibition (% PfCRTEcu1110 control)
[20] = read-out: Uptake of [3H]CQ (% PfCRTDd2 control), cis-inhibition, PfCRTEcu1110, SEM
[21] = read-out: Uptake of [3H]CQ (% PfCRTEcu1110 control), cis-inhibition
[22] = read-out: [3H]CQ transport (% PfCRTEcu1110 control), cis-inhibition, PfCRTEcu1110, SEM

N[C@@H](CCC(=O)O)C(=O)O [L-glutamic acid]
inhibition at 500 µM (non-expressing oocytes [1]; [11]): 2.5 ± 0.05%
inhibition at 1000 µM (non-expressing oocytes [1]; [11]): 2.7 ± 0.07%
inhibition at 2000 µM (non-expressing oocytes [1]; [11]): 3.8 ± 0.07%
inhibition at 500 µM (non-expressing oocytes [1]; [12]): 98 ± 4.7%
inhibition at 1000 µM (non-expressing oocytes [1]; [12]): 98 ± 3.7%
inhibition at 2000 µM (non-expressing oocytes [1]; [12]): 98 ± 5.2%
inhibition at 500 µM (PfCRT^3D7 [2]; [13]): 100 ± 3.8%
inhibition at 1000 µM (PfCRT^3D7 [2]; [13]): 101 ± 5.2%
inhibition at 2000 µM (PfCRT^3D7 [2]; [13]): 98 ± 5.7%
inhibition at 500 µM (PfCRT^3D7 [2]; [14]): 2.2 ± 0.01%
inhibition at 1000 µM (PfCRT^3D7 [2]; [14]): 2.8 ± 0.03%
inhibition at 2000 µM (PfCRT^3D7 [2]; [14]): 3.2 ± 0.08%
inhibition at 500 µM (PfCRT^Dd2 [3]; [15]): 96 ± 4.7%
inhibition at 1000 µM (PfCRT^Dd2 [3]; [15]): 94 ± 4.2%
inhibition at 2000 µM (PfCRT^Dd2 [3]; [15]): 94 ± 2.9%
inhibition at 1000 µM (PfCRT^Dd2 [3]; [16]): 96 ± 2.5%
inhibition at 2000 µM (PfCRT^Dd2 [3]; [16]): 96 ± 3.3%
inhibition at 500 µM (PfCRT^Dd2 [3]; [17]): 98 ± 2.7%
inhibition at 1000 µM (PfCRT^Dd2 [3]; [17]): 96 ± 2.5%
inhibition at 2000 µM (PfCRT^Dd2 [3]; [17]): 96 ± 3.3%
inhibition at 500 µM (PfCRT^Dd2 [3]; [18]): 96 ± 4.7%
inhibition at 1000 µM (PfCRT^Dd2 [3]; [18]): 94 ± 4.2%
inhibition at 2000 µM (PfCRT^Dd2 [3]; [18]): 94 ± 2.9%
inhibition at 500 µM (PfCRT^Ecu1110 [4]; [19]): 92 ± 4.5%
inhibition at 1000 µM (PfCRT^Ecu1110 [4]; [19]): 93 ± 5.1%
inhibition at 500 µM (PfCRT^Ecu1110 [4]; [20]): 31 ± 1.5%
inhibition at 1000 µM (PfCRT^Ecu1110 [4]; [20]): 31 ± 2%
inhibition at 2000 µM (PfCRT^Ecu1110 [4]; [20]): 32 ± 1.9%
inhibition at 500 µM (PfCRT^Ecu1110 [4]; [21]): 94 ± 3.5%
inhibition at 1000 µM (PfCRT^Ecu1110 [4]; [21]): 96 ± 2.4%
inhibition at 2000 µM (PfCRT^Ecu1110 [4]; [21]): 99 ± 4.6%
inhibition at 500 µM (PfCRT^Ecu1110 [4]; [22]): 28 ± 0.8%
inhibition at 1000 µM (PfCRT^Ecu1110 [4]; [22]): 28 ± 0.6%
inhibition at 2000 µM (PfCRT^Ecu1110 [4]; [22]): 29 ± 0.4%
Uptake of [3H]CQ (% non-expressing oocyte control), trans-stimulation (non-expressing oocytes [5]; [test solute]i = 5 mM): 99 ± 2.1 % non-expressing oocyte control
Uptake of [3H]CQ (% non-expressing oocyte control), trans-stimulation (non-expressing oocytes [5]; [test solute]i = 45 mM (30 mM for some solutes due to solubility)): 99 ± 3.3 % non-expressing oocyte control
Uptake of [3H]CQ (% PfCRTDd2 control), trans-stimulation, non-expressing oocytes (non-expressing oocytes [5]; [test solute]i = 5 mM (intracellular)): 3.1 ± 0.08 % PfCRTDd2 control
Uptake of [3H]CQ (% PfCRTDd2 control), trans-stimulation, non-expressing oocytes (non-expressing oocytes [5]; [test solute]i = 45 mM (intracellular; 30 mM for some solutes due to solubility)): 2.9 ± 0.05 % PfCRTDd2 control
activity at 5000 µM (PfCRT^3D7 [6]; PfCRT3D7 oocytes, [test solute]i = 5 mM, total [3H]CQ transport, normalised to the oocyte type control, read-out: Uptake of [3H]CQ (% PfCRT3D7 control), trans-stimulation): 101 ± 2.6%
[3H]CQ transport (% PfCRT3D7 control), trans-stimulation, PfCRT3D7 (PfCRT^3D7 [6]; SEM): 0.4 ± 0.02 % PfCRT3D7 control
activity at 5000 µM (PfCRT^3D7 [6]; [test solute]i = 5 mM (intracellular), PfCRT3D7 oocytes, normalised to oocyte type control, read-out: PfCRT-mediated [3H]CQ transport, trans-stimulation (% PfCRT3D7 control)): 99 ± 3.9%
activity at 45000 µM (PfCRT^3D7 [6]; SEM, read-out: Uptake of [3H]CQ (% PfCRTDd2 control), trans-stimulation, PfCRT3D7): 3.3 ± 0.02%
activity at 45000 µM (PfCRT^3D7 [6]; read-out: PfCRT-mediated [3H]CQ transport, trans-stimulation (% PfCRT3D7 control)): 97 ± 1.8%
activity at 45000 µM (PfCRT^3D7 [6]; read-out: Uptake of [3H]CQ (% PfCRT3D7 control), trans-stimulation): 99 ± 2.6%
activity at 5000 µM (PfCRT^3D7 [6]; total [3H]CQ transport, [test solute]i = 5 mM (intracellular), mean ± SEM, SEM, read-out: Uptake of [3H]CQ (% PfCRTDd2 control), trans-stimulation, PfCRT3D7): 3.4 ± 0.02%
activity at 5000 µM (PfCRT^Dd2 [7]; pH 5.5, read-out: PfCRT-mediated [3H]CQ transport, trans-stimulation (% PfCRTDd2 control), [test solute]i = 5 mM (intracellular), PfCRTDd2 oocytes, normalised to oocyte type control): 99 ± 3.5%
activity at 5000 µM (PfCRT^Dd2 [7]; pH 5.5, read-out: Uptake of [3H]CQ (% PfCRTDd2 control), trans-stimulation, PfCRTDd2, total [3H]CQ transport, [test solute]i = 5 mM (intracellular), mean ± SEM, SEM): 101 ± 2.2%
activity at 5000 µM (PfCRT^Dd2 [7]; pH 5.5, read-out: Uptake of [3H]CQ (% PfCRTDd2 control), trans-stimulation, PfCRTDd2 oocytes, [test solute]i = 5 mM, total [3H]CQ transport, normalised to the oocyte type control): 101 ± 2.2%
activity at 45000 µM (PfCRT^Dd2 [7]; pH 5.5, read-out: Uptake of [3H]CQ (% PfCRTDd2 control), trans-stimulation, PfCRTDd2 oocytes, total [3H]CQ transport, normalised to the oocyte type control): 96 ± 2.8%
activity at 5000 µM (PfCRT^Dd2 [7]; pH 5.5, read-out: [3H]CQ transport (% PfCRTDd2 control), trans-stimulation, PfCRTDd2, trans-stimulation, [test solute]i = 5 mM (injected), PfCRT-mediated component (background subtracted), mean ± SEM, SEM): 99 ± 3.5%
activity at 45000 µM (PfCRT^Dd2 [7]; pH 5.5, read-out: [3H]CQ transport (% PfCRTDd2 control), trans-stimulation, PfCRTDd2, trans-stimulation, PfCRT-mediated component (background subtracted), mean ± SEM, SEM): 94 ± 4.2%
activity at 5000 µM (PfCRT^Ecu1110 [8]; pH 5.5, read-out: PfCRT-mediated [3H]CQ transport, trans-stimulation (% PfCRTEcu1110 control), [test solute]i = 5 mM (intracellular), PfCRTEcu1110 oocytes, normalised to oocyte type control): 97 ± 2.4%
activity at 5000 µM (PfCRT^Ecu1110 [8]; pH 5.5, read-out: Uptake of [3H]CQ (% PfCRTEcu1110 control), trans-stimulation, PfCRTEcu1110 oocytes, [test solute]i = 5 mM, total [3H]CQ transport, normalised to the oocyte type control): 99 ± 3.6%
activity at 45000 µM (PfCRT^Ecu1110 [8]; pH 5.5, read-out: Uptake of [3H]CQ (% PfCRTEcu1110 control), trans-stimulation, PfCRTEcu1110 oocytes, [test solute]i = 45 mM (30 mM for some solutes due to solubility), total [3H]CQ transport, normalised to the oocyte type control): 100 ± 3.7%
activity at 5000 µM (PfCRT^Ecu1110 [8]; read-out: Uptake of [3H]CQ (% PfCRTDd2 control), trans-stimulation, PfCRTEcu1110, total [3H]CQ transport, [test solute]i = 5 mM (intracellular), mean ± SEM, SEM): 35 ± 1.5%
activity at 45000 µM (PfCRT^Ecu1110 [8]; read-out: Uptake of [3H]CQ (% PfCRTDd2 control), trans-stimulation, PfCRTEcu1110, total [3H]CQ transport, [test solute]i = 45 mM (intracellular; 30 mM for some solutes due to solubility), mean ± SEM, SEM): 36 ± 2.1%
activity at 5000 µM (PfNT1): 2.7 ± 0.06%
Compounds that have been tested as potential co-substrates but are not required for influx of VF-6 via PfCRT into the oocyte (PfCRT [9]): X
Tested as potential co-substrate but not required for influx of VF-6 via PfCRT into the oocyte (PfCRT [10]): X
